Measured values from US11365199B2, “Pyrazole compounds as modulators of FSHR and uses thereof” (Merck Patent GmbH, priority 2013, dated 2022).
Like-named read-outs stand apart in the source and are kept apart here.

Legend:
FSHR = target: T1, FSHR (Homo sapiens, UniProt P23945); assay: EC50 of cyclic AMP production in CHO FSHR cells + EC20 FSH (Assay A); assay type: cell-based
T1 construct: expressed in transfected cells; host or cells: CHO (Cho-FSHR-LUC-1-1-43)
T1 sequence (P23945 18-695): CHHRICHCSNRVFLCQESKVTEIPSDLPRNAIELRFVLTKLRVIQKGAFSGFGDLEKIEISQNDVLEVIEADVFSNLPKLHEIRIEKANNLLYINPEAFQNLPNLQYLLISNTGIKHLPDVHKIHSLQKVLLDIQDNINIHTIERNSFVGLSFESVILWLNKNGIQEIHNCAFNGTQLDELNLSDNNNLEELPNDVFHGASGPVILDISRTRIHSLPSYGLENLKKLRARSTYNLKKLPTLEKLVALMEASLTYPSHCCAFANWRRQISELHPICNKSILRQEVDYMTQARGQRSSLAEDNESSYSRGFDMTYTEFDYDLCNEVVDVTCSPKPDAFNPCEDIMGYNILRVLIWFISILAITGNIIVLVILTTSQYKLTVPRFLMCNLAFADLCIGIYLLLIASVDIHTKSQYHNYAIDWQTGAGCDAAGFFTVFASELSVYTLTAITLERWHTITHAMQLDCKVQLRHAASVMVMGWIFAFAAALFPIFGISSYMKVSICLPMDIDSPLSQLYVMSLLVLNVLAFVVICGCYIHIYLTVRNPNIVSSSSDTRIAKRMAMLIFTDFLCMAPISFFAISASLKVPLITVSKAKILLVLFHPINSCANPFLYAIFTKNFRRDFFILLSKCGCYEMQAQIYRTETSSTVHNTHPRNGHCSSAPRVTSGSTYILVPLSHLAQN
Outline: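 Cho-FSHR-LUC cells were exposed to compound dilution series with EC20 FSH ([…]) and 200 μM IBMX for 1 h at 37° C. cAMP was read by HTRF (665/620 nm ratio). Effects are percent of the maximal FSH standard response.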

[1] = target: T2, follicle-stimulating hormone (FSH) receptor (Rattus norvegicus, UniProt P20395); assay: Rat granulosa EC50 FSH (Assay B); assay type: cell-based
T2 construct: endogenous in cells; host or cells: primary rat granulosa cells
T2 sequence (P20395 18-692): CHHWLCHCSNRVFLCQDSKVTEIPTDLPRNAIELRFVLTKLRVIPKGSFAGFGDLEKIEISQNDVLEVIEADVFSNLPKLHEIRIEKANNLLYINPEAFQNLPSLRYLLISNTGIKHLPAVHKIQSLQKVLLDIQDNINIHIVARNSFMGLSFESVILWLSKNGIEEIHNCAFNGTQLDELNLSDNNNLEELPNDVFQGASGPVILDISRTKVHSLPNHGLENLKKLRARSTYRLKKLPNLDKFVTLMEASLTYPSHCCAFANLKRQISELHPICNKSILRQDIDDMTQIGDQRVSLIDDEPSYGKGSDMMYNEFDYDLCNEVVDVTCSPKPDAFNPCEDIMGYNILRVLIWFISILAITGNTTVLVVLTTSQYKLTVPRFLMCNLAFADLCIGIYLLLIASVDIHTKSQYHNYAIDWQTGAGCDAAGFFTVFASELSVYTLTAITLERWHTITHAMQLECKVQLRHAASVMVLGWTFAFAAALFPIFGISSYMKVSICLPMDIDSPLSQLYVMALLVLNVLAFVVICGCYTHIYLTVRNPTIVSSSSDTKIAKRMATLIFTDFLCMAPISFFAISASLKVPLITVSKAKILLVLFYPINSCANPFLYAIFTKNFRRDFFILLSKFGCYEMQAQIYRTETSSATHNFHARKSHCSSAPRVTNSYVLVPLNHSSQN
Protocol: Rat Granulosa EC50 FSH (Assay B)
The assay was performed pursuant to the teaching of Yanofsky et al. (2006) Allosteric activation of the follicle-stimulating hormone (FSH) receptor by selective, nonpeptide agonists (JBC 281(19): 13226-13233, which is incorporated by reference in the disclosure of the invention).

[2] = CHO FSHR cells + EC20 FSH, cAMP HTRF, read-out: Assay A: EC50 of cyclic AMP production
[3] = rat granulosa cells, read-out: Assay B: Rat granulosa EC50 FSH

| Compound | EC50 (FSHR; [2]) [nM] | Emax at 6 µM ([1]; @ 6 μM, read-out: Assay B: percental effect (response) relative to the maximum response of the FSH standard) [%] | EC50 [1, 3] [nM] | EC50 (FSHR) [nM] | EC50 [1] [nM] |
| --- | --- | --- | --- | --- | --- |
| COc1cc2c(cc1C=C(C)C)-c1c(c(C(=O)NCCNC(C)=O)nn1-c1ccsc1)CO2 [Compound 7, 7-Methoxy-8-(2-methyl-propenyl)-1-thiophen-3-yl-1,4-dihydro-chromeno[4,3-c]pyrazole-3-carboxylic Acid (2-acetylamino-ethyl)-amide] | 1000 to 5000 | 43.5 | – | – | – |
| COc1cc2c(cc1SCC(C)C)-c1c(c(C(=O)N3CCOCC3(C)C)nn1-c1ccsc1)CO2 [Compound 97, (3,3-Dimethyl-morpholin-4-yl)-(8-isobutylsulfanyl-7-methoxy-1-thiophen-3-yl-1,4-dihydro-chromeno[4,3-c]pyrazol-3-yl)-methanone] | 100 to 1000 | – | 100 to 1000 | – | – |
| COc1cc2c(cc1C=C(C)C)-c1c(c(C(=O)NCCN3CCOC3=O)nn1-c1ccsc1)CO2 [Compound 13, 7-Methoxy-8-(2-methyl-propenyl)-1-thiophen-3-yl-1,4-dihydro-chromeno[4,3-c]pyrazole-3-carboxylic acid [2-(2-oxo-oxazolidin-3-yl)-ethyl]-amide] | 100 to 1000 | – | 1000 to 5000 | – | – |
| COc1cc2c(cc1CNC(C)=O)-c1c(c(C(=O)N3CCOCC3(C)C)nn1-c1ccsc1)CO2 [Compound 175, N-[3-(3,3-Dimethyl-morpholine-4-carbonyl)-7-methoxy-1-thiophen-3-yl-1,4-dihydro-chromeno[4,3-c]pyrazol-8-ylmethyl]-acetamide] | 100 to 1000 | – | > 5000 | – | – |
| COc1cc2c(cc1-c1ccn(C)c1)-c1c(c(C(=O)N3CCNCC3(C)C)nn1-c1ccsc1)CO2 [Compound 170] | < 100 | – | 1000 to 5000 | – | – |
| [2H]C([2H])([2H])OC1(CN(C(=O)c2nn(-c3ccsc3)c3c2COc2cc(OC)c(-c4ccn(C)c4)cc2-3)C([2H])([2H])[2H])COC1 [Compound 168] | < 100 | – | 100 to 1000 | – | – |
| COc1cc2c(cc1-c1ccn(C)c1)-c1c(c(C(=O)NC3(CCO)COC3)nn1-c1ccsc1)CO2 [Compound 186, 7-Methoxy-8-(1-methyl-1H-pyrrol-3-yl)-1-thiophen-3-yl-1,4-dihydro-chromeno[4,3-c]pyrazole-3-carboxylic acid [3-(2-hydroxy-ethyl)-oxetan-3-yl]-amide] | < 100 | – | 100 to 1000 | – | – |
| COc1cc2c(cc1C1=NC([Si](C)(C)C)N=N1)-c1c(c(C(=O)N3CCOCC3(C)C)nn1-c1ccsc1)CO2 (stereo not shown) [Compound 139, (3,3-Dimethyl-morpholin-4-yl)-[7-methoxy-1-thiophen-3-yl-8-(5-trimethylsilanyl-5H-[1,2,4]triazol-3-yl)-1,4-dihydro-chromeno[4,3-c]pyrazol-3-yl]-methanone] | – | – | – | < 100 | 1000 to 5000 |
| COc1cc2c(cc1C(N)=O)-c1c(c(C(=O)N(C)C(C)(C)C)nn1-c1ccsc1)CO2 [Compound 50, 7-Methoxy-1-thiophen-3-yl-1,4-dihydro-chromeno[4,3-c]pyrazole-3,8-dicarboxylic Acid 8-amide 3-(tert-butyl-methyl-amide)] | < 100 | – | 100 to 1000 | – | – |
| [2H]C([2H])([2H])OCC(C)(C)N(C(=O)c1nn(-c2ccsc2)c2c1COc1cc(OC)c(CC(C)C)cc1-2)C([2H])([2H])[2H] [Compound 83] | < 100 | – | 100 to 1000 | – | – |
| COc1cc2c(cc1-c1ccns1)-c1c(c(C(=O)N(C)C(C)(C)C)nn1-c1ccsc1)CO2 [Compound 105, 8-Isothiazol-5-yl-7-methoxy-1-thiophen-3-yl-1,4-dihydro-chromeno[4,3-c]pyrazole-3-carboxylic acid tert-butyl-methyl-amide] | < 100 | – | < 100 | – | – |
| [2H]C([2H])([2H])N(CCN(C(=O)c1nn(-c2ccsc2)c2c1COc1cc(OC)c(CC(C)C)cc1-2)C([2H])([2H])[2H])C(C)=O [Compound 82] | < 100 | – | 1000 to 5000 | – | – |
| [2H]C([2H])([2H])n1cc(-c2cc3c(cc2OC)OCc2c(C(=O)N4CCOCC4(C)C)nn(-c4ccsc4)c2-3)cn1 [Compound 96] | < 100 | – | 100 to 1000 | – | – |
| [2H]C([2H])([2H])OC1(CN(C(=O)c2nn(-c3ccsc3)c3c2COc2cc(OC)c(-c4ccn(C)n4)cc2-3)C([2H])([2H])[2H])COC1 [Compound 167] | 100 to 1000 | – | 100 to 1000 | – | – |
| COc1cc2c(cc1C1=CCOCC1)-c1c(c(C(=O)N3CCOCC3(C)C)nn1-c1ccsc1)CO2 [Compound 189, [8-(3,6-Dihydro-2H-pyran-4-yl)-7-methoxy-1-thiophen-3-yl-1,4-dihydro-chromeno[4,3-c]pyrazol-3-yl]-(3,3-dimethyl-morpholin-4-yl)-methanone] | < 100 | – | < 100 | – | – |

More lines, main results first:

| EC50 (FSHR; [2]) [nM] | Emax at 6 µM ([1]; @ 6 μM, read-out: Assay B: percental effect (response) relative to the maximum response of the FSH standard) [%] | EC50 [1, 3] [nM] | Compound | EC50 (FSHR) [nM] | EC50 [1] [nM] |
| --- | --- | --- | --- | --- | --- |
| < 100 | – | 100 to 1000 | COc1cc2c(cc1C1=CCCC1)-c1c(c(C(=O)N(C)C(C)(C)C)nn1-c1ccsc1)CO2 [Compound 149, 8-Cyclopent-1-enyl-7-methoxy-1-thiophen-3-yl-1,4-dihydro-chromeno[4,3-c]pyrazole-3-carboxylic acid tert-butyl-methyl-amide] | – | – |
| < 100 | – | 1000 to 5000 | [2H]C([2H])([2H])N(CCN1CCOC1=O)C(=O)c1nn(-c2ccsc2)c2c1COc1cc(OC)c(CC(C)C)cc1-2 [Compound 214] | – | – |
| < 100 | – | 100 to 1000 | COc1cc2c(cc1-c1c(C)n[nH]c1C)-c1c(c(C(=O)N3CCOCC3(C)C)nn1-c1ccsc1)CO2 [Compound 126, (3,3-Dimethyl-morpholin-4-yl)-[8-(3,5-dimethyl-1H-pyrazol-4-yl)-7-methoxy-1-thiophen-3-yl-1,4-dihydro-chromeno[4,3-c]pyrazol-3-yl]-methanone] | – | – |
| < 100 | – | 1000 to 5000 | COc1cc2c(cc1C(O)C(C)C)-c1c(c(C(=O)N3CCOCC3(C)C)nn1-c1ccsc1)CO2 (stereo not shown) [Compound 131, (3,3-Dimethyl-morpholin-4-yl)-[8-(1-hydroxy-2-methyl-propyl)-7-methoxy-1-thiophen-3-yl-1,4-dihydro-chromeno[4,3-c]pyrazol-3-yl]-methanone] | – | – |
| < 100 | – | < 100 | COCCCn1cc(-c2cc3c(cc2OC)OCc2c(C(=O)N4CCOCC4(C)C)nn(-c4ccsc4)c2-3)cn1 [Compound 208, (3,3-Dimethyl-morpholin-4-yl)-{7-methoxy-8-[1-(3-methoxy-propyl)-1H-pyrazol-4-yl]-1-thiophen-3-yl-1,4-dihydro-chromeno[4,3-c]pyrazol-3-yl}-methanone] | – | – |
| < 100 | – | 100 to 1000 | COc1cc2c(cc1-c1cn(C)nc1C)-c1c(c(C(=O)N(C)C(C)(C)C)nn1-c1ccsc1)CO2 [Compound 150, 8-(1,3-Dimethyl-1H-pyrazol-4-yl)-7-methoxy-1-thiophen-3-yl-1,4-dihydro-chromeno[4,3-c]pyrazole-3-carboxylic acid tert-butyl-methyl-amide] | – | – |
| < 100 | – | 100 to 1000 | COc1cc2c(cc1SC(C)C)-c1c(c(C(=O)N(C)C(C)(C)C)nn1-c1ccsc1)CO2 [Compound 52, 8-isopropylsulfanyl-7-methoxy-1-thiophen-3-yl-1,4-dihydro-chromeno[4,3-c]pyrazole-3-carboxylic Acid tert-butyl-methyl-amide] | – | – |
| < 100 | – | > 5000 | COc1cc2c(cc1-c1c(C)nn(C)c1C)-c1c(c(C(=O)N3CCOCC3(C)C)nn1-c1ccsc1)CO2 [Compound 121, (3,3-Dimethyl-morpholin-4-yl)-[7-methoxy-1-thiophen-3-yl-8-(1,3,5-trimethyl-1H-pyrazol-4-yl)-1,4-dihydro-chromeno[4,3-c]pyrazol-3-yl]-methanone] | – | – |
